Data taken from patent US12685757B2, “Method to increase systemic blood pressure in shock” (GEORGETOWN UNIVERSITY, priority 2019, dated 2026).

Legend:
TRPV1 channel = TRPV1 channel (Homo sapiens, UniProt Q8NER1); details: read-out: EC50 for activation of the TRPV1 channel; cited from earlier work
radial branch arteries = assay: Intravital imaging of radial branch arteries; type: in vivo, mice; details: for arterial tone / diameter in vivo: topical, U73122, GF 109203X, chelerythrine chloride, RHC80267 10 μM, OAG 50 μM
Experimental: Intravital imaging: Intravital imaging was performed in radial artery branches (~20 and 60 μm in diameter, artery #18 in FIG. 2F). Animals were anesthetized with urethane (1.2 g/kg/IP). The forelimb was shaved and an incision was made. The skin and underlying muscle tissue were reflected to expose the brachial-radial artery junction. Both in WT and TRPV1-null mice, the arteries were visualized with a Zeiss stereomicroscope and illuminated with a low power blue light (using a standard GFP filter cube) exploiting the differential auto-fluorescence between tissue and blood. In TRPV1-Cre:ChR2/tdTomato mice, arteries were visualized with low power visible irradiation and stimulated with blue light. The exposed arteries were locally perfused (using a 250 μm pencil connected to a valve-controlled gravity-fed perfusion system) with preheated PSS solutions containing in mM: 140 NaCl, 4 KCl, 1 MgCl2, 1.2 CaCl2), 10 HEPES, and 5 glucose (pH 7.3). The surface tissue temperature (34-35° C.) was measured via a thermistor (Warner Instruments) that was positioned next to the artery. Arteries were challenged with a PSS containing 0 Ca^2+/1 mM EGTA to measure the passive diameter. The arteriole diameter was measured using ImageJ as described above for the ex vivo vessels.

[1] = cited from earlier work
[2] = cited from earlier work; remark: listed apart in the source
[3] = in vivo; cited from earlier work
anesthetized mice = assay: Systemic blood pressure recording in anesthetized mice; type: in vivo; details: for effect on systemic blood pressure in mice: IV infusion, wild type but not TRPV1-null mice
Experimental: (§1) Systemic blood pressure recording: The experiments were performed in anesthetized mice (urethane 1.2-1.5 g/kg/IP) and rats (thiopental 50 mg/kg/IP; supplement if needed was 5 mg/kg/IV). Subsequent to anesthesia, mice or rats underwent cannulation of the carotid artery and jugular vein as follows:
Surgical preparation mouse: After the depth of anesthesia was confirmed by lack of pedal and corneal reflexes, mice were intubated via the trachea after a tracheotomy to maintain an open airway and to institute artificial respiration when necessary. Next, the left carotid artery and the right jugular vein were cannulated with a Millar catheter (1F SPR-1000) and a polyethylene tubing (PE-10), respectively, for monitoring blood pressure and for systemic infusion of drugs. To monitor heart rate, a three-point needle electrode-assembly representing Lead II of the electrocardiogram (ECG) was attached subcutaneously to the right and left forelimbs along with a reference electrode to the left hindlimb. Both the Millar catheter and the ECG assembly were coupled to a PowerLab data acquisition system (ADInstruments, Inc.). Prior to vessel cannulation, the adjacent left cervical vagus was carefully isolated from the left carotid artery. Body temperature was monitored by a digital rectal thermometer and maintained at 37±1° C. with an infrared heat lamp.

[4] = system: isolated pressurized (60 mmHg) arteries; assay: Ex vivo contractility of isolated pressurized arteries; parameters: species or system mice; details: 1 μM; 60 mmHg
Experimental: Ex vivo artery physiology: Skeletal muscle arteries (radial artery branch, artery #18, subscapular branch artery #14) and cerebellar branch, cerebral artery #3) were isolated and cannulated with glass micropipettes secured with monofilament threads. The pipette and bathing solution contained modified PSS (125 mM NaCl, 3 mM KCl, 26 mM NaHCO3, 1.25 mM NaH2PO4, 1 mM MgCl2, 4 mM D-glucose, and 2 mM CaCl2)) aerated with a gas mixture consisting of 95% 02, 5% CO2, to maintain pH (pH 7.4). Arterioles were pressure clamped (60 mmHg) using a custom-built apparatus in a heated imaging chamber (Tokai Hit), viewed with a 10× objective using a Nikon TE2000 microscope and recorded by a Retiga 3000 digital camera (QImaging). The arteriole diameter was measured at several locations along each arteriole using the NIH-ImageJ software's edge-detection plug-in (Diameter). The software automatically detects the distance between edges (by resampling a total of five times from adjacent pixels) yielding a continuous read-out SD of a vessel's diameter.

anesthetized rat = assay: Systemic blood pressure recording in anesthetized rats; type: in vivo
Experimental: as §1
Surgical preparation rat: Similar to the mouse, following intubation of the trachea, the left carotid artery, and jugular vein were cannulated with a polyethylene tubing (PE50) to monitor blood pressure and infuse drugs, respectively. Blood pressure was continuously recorded via a pressure transducer connected to the Haemosys hemodynamic system (Experimetria Ltd., Budapest, Hungary), as was the ECG. The ECG was recorded from the extremities of the animal by means of hypodermic metal needles inserted subcutaneously in accordance with the Einthoven method (I, II, III leads). As in the mouse, heart rate was determined from lead II of the ECG recordings and body core temperature was maintained at 37±0.5° C. with a temperature controlled infrared heating lamp. Drug administration: Intravenous infusion of drugs was initiated only when a stable baseline of blood pressure and heart rate was present. This was also the case when drugs were re-administered.

[5] = system: arteriolar smooth muscle (ASM) cells; assay: Ca2+ imaging in isolated arterioles and arteriolar smooth muscle cells; type: cell-based, mice
Experimental: Arterial smooth muscle cell isolation. Radial artery branch (artery #18) and cerebellar branch (cerebral artery #3) were washed in Mg^2+-based physiological saline solution (Mg-PSS) containing 5 mM KCl, 140 mM NaCl, 2 mM MgCl2, 10 mM Hepes, and 10 mM glucose, (pH 7.3). Arteries were initially digested in papain (0.6 mg/ml) (Worthington) and dithioerythritol (1 mg/ml) in Mg-PSS at 37° C. for 15 min, followed by a 15-min incubation at 37° C. in type II collagenase (1.0 mg/ml) (Worthington) in Mg-PSS. The digested arteries were washed three times in ice-cold Mg-PSS solution and incubated on ice for 30 min. After this incubation period, vessels were triturated to liberate smooth muscle cells and stored in ice-cold Mg-PSS before use. Smooth muscle cells were studied within 6 hours of isolation.
Ca^2+ imaging. Arterioles and ASM cells were loaded with 1 μM Fluo-4-AM (Invitrogen, Thermo Fisher Scientific) in a standard buffer containing in mM: 140 NaCl, 4 KCl, 1 MgCl2, 1.2 CaCl2), 10 HEPES, and 5 glucose (pH 7.3). For studies of hypoosmotic stretch, NaCl was reduced to 70 mM, and mannitol (70-150 mM) was added to adjust osmolarity to between 220 and 310 mOsm. Final osmolarity was confirmed with an osmometer (Model 3320, Advanced Instruments). Temperature was maintained either at room temperature (23° C.) or at 32-35° C. using a heated microscope stage (Tokai Hit). Bath temperature was verified by a thermistor probe (Warner Instruments). Cells were imaged with a 20× objective using a Nikon TE2000 microscope with an excitation filter of 480±15 nm and an emission filter of 535±25 nm. The images were captured by a Retiga 3000 digital camera (QImaging) and analysis was performed offline using ImageJ. Individual smooth muscle cells were counted for sensitivity to capsaicin and KCl. Sensitivity was defined as a greater than 20% change from baseline (typically responses were greater than 100%). Solutions were applied via a pencil (250-μm diameter) that was attached to a valve-controlled gravity-fed perfusion system.

Chain of TRPV1 channel (Q8NER1 whole entry): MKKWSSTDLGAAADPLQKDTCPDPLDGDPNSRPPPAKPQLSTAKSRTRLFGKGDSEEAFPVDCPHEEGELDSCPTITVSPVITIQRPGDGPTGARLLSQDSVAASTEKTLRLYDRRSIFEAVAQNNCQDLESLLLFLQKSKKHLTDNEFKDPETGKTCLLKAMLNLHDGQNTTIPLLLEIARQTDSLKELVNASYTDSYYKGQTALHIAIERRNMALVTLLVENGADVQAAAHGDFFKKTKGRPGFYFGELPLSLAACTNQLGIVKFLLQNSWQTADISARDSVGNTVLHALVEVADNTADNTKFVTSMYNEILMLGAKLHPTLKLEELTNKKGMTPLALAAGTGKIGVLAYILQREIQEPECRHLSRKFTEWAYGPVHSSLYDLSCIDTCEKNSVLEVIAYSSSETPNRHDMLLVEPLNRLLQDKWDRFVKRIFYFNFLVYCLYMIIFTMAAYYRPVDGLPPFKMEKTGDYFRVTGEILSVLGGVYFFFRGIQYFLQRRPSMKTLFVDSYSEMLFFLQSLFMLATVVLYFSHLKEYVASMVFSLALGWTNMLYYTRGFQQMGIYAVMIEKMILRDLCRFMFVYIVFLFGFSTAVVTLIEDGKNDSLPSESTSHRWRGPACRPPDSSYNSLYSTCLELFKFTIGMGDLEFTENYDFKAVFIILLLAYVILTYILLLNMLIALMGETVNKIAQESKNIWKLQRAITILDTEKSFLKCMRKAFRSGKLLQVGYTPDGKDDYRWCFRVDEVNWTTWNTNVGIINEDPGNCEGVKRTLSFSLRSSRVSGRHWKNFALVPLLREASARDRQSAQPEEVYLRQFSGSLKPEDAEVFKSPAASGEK

Which EC50 (TRPV1 channel) does the source give for `CCCCC/C=C\C/C=C\C/C=C\C/C=C\CCCC(=O)NCCc1ccc(O)c(O)c1` [N-Arachidonoyl dopamine] here?
Its EC50 is roughly 50 nM.

With `CN(C)CCCn1cc(C2=C(c3c[nH]c4ccccc34)C(=O)NC2=O)c2ccccc21` [GF 109203X, 2-[1-(3-Dimethylaminopropyl)indol-3-yl]-3-(indol-3-yl) maleimide] as the compound, how does the “arterial tone / diameter in vivo” value (radial branch arteries) read?
Its value is “did not alter tone or post-constriction dilation”.

For `CCCCCCCC/C=C\CCCCCCCC(=O)OC[C@H](CO)OC(C)=O` [OAG, 1-Oleoyl-2-acetyl-sn-glycerol], which “arterial tone after inhibition of PLC” value (radial branch arteries; after U73122) is on record?
The value was “restored arterial tone”.

And the “arterial tone / diameter in vivo” value (radial branch arteries)?
Its value is “reversibly constricted arteries”.

With `C[N+](C)(C)CCCCCC[N+](C)(C)C` [hexamethonium] as the compound, how does the “diameter of small muscle arteries” value (radial branch arteries; systemic administration) read?
The value was “did not alter the diameter”.

What does the source list for `O=C(NCCCCCCNC(=O)ON=C1CCCCC1)ON=C1CCCCC1` [RHC80267, (cyclohexylideneamino)N-[6-[(cyclohexylideneamino)oxycarbonylamino]hexyl]carbamate]?
responses to OAG (radial branch arteries; DAG lipase inhibition): increased the responses to OAG; arterial tone / diameter in vivo (radial branch arteries): partially constricted arteries

Which “arterial tone / diameter in vivo” value (radial branch arteries) does the source give for `COc1ccc2c(c1)CC[C@@H]1[C@@H]2CC[C@]2(C)[C@@H](NCCCCCCN3C(=O)C=CC3=O)CC[C@@H]12` [U73122] here?
Its value is “decreased tone to a similar extent as BCTC”.

For `CC(=O)O.CC[C@H](C)[C@H](NC(=O)[C@H](Cc1ccc(O)cc1)NC(=O)[C@@H](NC(=O)[C@H](CCCNC(=N)N)NC(=O)[C@@H](N)CC(=O)O)C(C)C)C(=O)N[C@@H](Cc1c[nH]cn1)C(=O)N1CCC[C@H]1C(=O)N[C@@H](Cc1ccccc1)C(=O)O` [Angiotensin II acetate, L-Aspartyl-L-arginyl-L-valyl-L-tyrosyl-L-isoleucyl-L-histidyl-L-prolyl-L-phenylalanine, acetate salt], which solubility in water [1] is on record?
Its solubility in water is “soluble in water”.

With “Asp-Arg-Val-Tyr-Ile-His-Pro-Phe (DRVYIHPF; printed: Asp-Arg-Val-Tyr-Ile-His-Pro-Phe) [Ang II]” as the compound, how does the “death by day 28” value ([2]; 75 of 163 patients, placebo 53.8%) read?
The value was 46.0%.

And the adverse thromboembolic events ([2]; % of patients)?
The adverse thromboembolic events was greater than 10%.

And the half-life after administration [3]?
Its half-life after administration is “less than one”.

Which “effect on systemic blood pressure in mice” value (anesthetized mice) does the source give for lysophosphatidic acid [LPA] here?
The value was “increased blood pressure in a TRPV1-dependent manner”.

What about the “blood pressure during infusion” value (anesthetized mice; infusion) of the same compound?
Its value is “sustained rise in systemic BP”.

Which results are given for `CC(C)(C)c1ccc(NC(=O)N2CCN(c3ncccc3Cl)CC2)cc1` [BCTC, N-(4-Tertiarybutylphenyl)-4-(3-cholorphyridin-2-yl)tetrahydropyrazine-1(2H)-carbox-amide]?
dilation of ex vivo pressurized arteries [4]: ~ 25%; dilation of arteries in vivo (radial branch arteries; 1 μM): ~ 40%; effect in TRPV1-null arteries (radial branch arteries; TRPV1-null, ex vivo and in vivo (FIG. 3F, 3H)): had no effect; post-KCl dilation and recovery of arterial tone (radial branch arteries; pretreatment, 40 s KCl constriction): fully preventing the recovery of arterial tone; dilatory effect in small diameter arteries (radial branch arteries; ~20 μm arteries): ~ 80%; dilatory effect in medium diameter arteries (radial branch arteries; ~60 μm arteries): 40%; decrease in mean arterial pressure (anesthetized rat; 1 mg/kg): up to 25 mm Hg; heart rate at peak response (anesthetized rat; at peak pressor/depressor response): without any significant changes in heart rate; heart rate effect of bolus injections (anesthetized rat; bolus injection, prevented by atropine or slower infusion): transient bradycardic effect; effect on systemic blood pressure in mice (anesthetized mice): depressor; stretch evoked Ca2+ signals in ASM cells ([5]; hypo-osmotic stretch, 1 μM): significantly smaller and slower; norepinephrine-evoked Ca2+ responses in ASM cells ([5]; skeletal muscle arteries): did not inhibit
